One data set relates to OVCAR3 Cells. The data set is described as follows: OVCAR3 Cell Viability Assay (CellTiter-Glo). Type of data set: cell-based. As to conditions: Homo sapiens, OVCAR-3, 144 h, 6 days incubation, read-out: OVCAR3 CTG IC50. The gist of the method: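 Cells seeded at 2000/well in RPMI1640 + 20% FBS + insulin, treated next day with serially diluted compound for 6 days at 37 °C, 5% CO2 (0.5% DMSO final). Viability by CellTiter-Glo luminescence; inhibition normalised to DMSO and blank controls, IC50 from four-parameter fit.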

A short description of a further data set: Mouse PK Assay. As to conditions: plasma, male BALB/c mouse. The data set is classed as in vivo.
The target in the next data set is T1, PXR (Homo sapiens, UniProt O75469).
T1 construct: expressed in transfected cells; host or cells: DPX2 cells
T1 sequence (O75469 1-434): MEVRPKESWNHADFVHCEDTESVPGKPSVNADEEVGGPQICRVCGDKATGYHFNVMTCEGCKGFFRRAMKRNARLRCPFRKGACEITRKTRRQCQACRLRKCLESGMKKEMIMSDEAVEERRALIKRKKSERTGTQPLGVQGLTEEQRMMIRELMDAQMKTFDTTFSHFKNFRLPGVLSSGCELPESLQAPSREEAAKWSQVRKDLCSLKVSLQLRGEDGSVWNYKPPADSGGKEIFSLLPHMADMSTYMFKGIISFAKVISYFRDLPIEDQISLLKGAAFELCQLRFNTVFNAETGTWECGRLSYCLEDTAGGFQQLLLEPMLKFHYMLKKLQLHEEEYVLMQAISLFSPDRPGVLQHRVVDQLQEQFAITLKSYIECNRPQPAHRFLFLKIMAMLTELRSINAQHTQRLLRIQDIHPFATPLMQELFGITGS
The data set is described as follows: In Vitro PXR Activation Study (DPX2 cells). Type of data set: cell-based. Particulars: concentration 30 uM, 48 h treatment. Here is the method:
Prepared the culture medium for DPX2 cells using DPX2 culturing medium supplemented with 10% FBS. Cultivated DPX2 cells in T-75 flasks in a cell culture incubator set at 37 C, 5% CO2, 95% relative humidity. Allowed cells to reach 80-90% confluence before detaching and splitting. Rinsed cultivated cells in T-75 flasks with 5 mL PBS. Aspirate off, add 1.5 mL trypsin, and incubated at 37° C. for approximately 5 minutes or until the cells detach and float. Inactivated trypsin by adding excess serum containing medium. Removed cell suspension to a conical tube and pellet cells by centrifugation at 150×g for 5 minutes. Resuspended cells in seeding medium at a density of 3.2×10^5 cells/mL. Transferred 25 μL to each well of 384-well cell culture plate. Placed plate(s) in incubator and incubate at 37° C. for 24 hours.
Prepared stock solutions of test compounds and inducers in DMSO. Final concentration of DMSO in the treatment group should be 0.1%. Removed the plates from the incubator and directly add 25 μL of the negative control, inducers, or test article solutions. Returned plates to the incubator for 48 hours. […] After 48 h of treatment, the cultures were ready for the determination of quantitation of PXR activation.
The fold-activation mRNA level was determined by the equation: […]

The next data set has as its system HCC1806 Cells. As to the kind of experiment: HCC1806 Cell Viability Assay (CellTiter-Glo). The data set is classed as cell-based. As to conditions: Homo sapiens, 144 h, 6 days incubation, read-out: HCC1806 CTG IC50. Here is the method:
HCC1806 Cells (ATCC, Cat #CRL-2335) were seeded at a density of 500 cells/well in a 96-well clear bottom plate (Greiner, Cat #655098) in 100 μL of complete media (RPMI1640+10% FBS). One hundred microliter of complete media was added into the blank wells (column 1) for low control. Cells were allowed to adhere to the plate overnight in the incubator at 37° C., 5% CO2. On the following day, 0.5 μL of serially-diluted compounds were added to the cells (columns 2-10) and incubated for 6 days at 37° C., 5% CO2 (final 0.5% DMSO concentration); 0.5 μL of DMSO solution was added into the wells (column 11) for high control. Cell viability was detected according to the CellTiter-Glo Luminescent Cell Viability Assay Kit (Promega, Cat #G7573). Luminescence was recorded on the Tecan Spark plate reader. Inhibition rate (IR) of the tested compounds was determined by the following formula: IR (%)=(1−(RLUcompound−RLUlow control)/(RLUhigh control−RLUlow control))×100%. The IC50 value was calculated using the non-linear regression equation: Y=Bottom+(Top−Bottom)/(1+10^((Log IC50−X)×HillSlope)), where X is Log of compound concentration, Y is percent inhibition (IR (%)), Top and Bottom are plateaus in same units as Y.

For the next data set, the target named is T2, P450 2C9 (Homo sapiens, UniProt P11712).
T2 construct: incubation with known industry-accepted CYP450 substrates, test articles and microsomes (HLM); from tissue; host or cells: liver microsomes (HLM)
T2 sequence (P11712 whole entry): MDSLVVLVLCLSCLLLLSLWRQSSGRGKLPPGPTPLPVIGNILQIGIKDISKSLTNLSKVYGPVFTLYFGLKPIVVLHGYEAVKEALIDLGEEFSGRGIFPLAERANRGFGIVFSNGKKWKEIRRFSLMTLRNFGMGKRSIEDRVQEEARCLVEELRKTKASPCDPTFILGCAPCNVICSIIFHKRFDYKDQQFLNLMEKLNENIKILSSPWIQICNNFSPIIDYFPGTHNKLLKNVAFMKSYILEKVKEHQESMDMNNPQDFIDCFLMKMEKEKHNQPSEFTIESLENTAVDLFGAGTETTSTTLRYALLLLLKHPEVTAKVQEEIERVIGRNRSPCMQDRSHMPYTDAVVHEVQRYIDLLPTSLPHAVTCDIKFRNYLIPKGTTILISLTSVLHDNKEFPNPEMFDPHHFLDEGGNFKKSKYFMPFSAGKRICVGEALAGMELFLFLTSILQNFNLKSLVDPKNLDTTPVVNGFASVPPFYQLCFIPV
As to the kind of experiment: In Vitro Cytochrome P450 Inhibition Study. The data set is classed as in vitro ADME. As to conditions: human liver microsomes (HLM), test compound 0.137 μM to 10 μM, 10 min at 37 °C. Here is the method: CYP inhibition was evaluated by monitoring corresponding metabolite decrease after incubation with known industry-accepted CYP450 substrates, test articles and microsomes (HLM).
Eight reaction wells with 30 μL of a solution containing 100 mM potassium phosphate, pH 7.4 and 1:3 serial dilutions of the test compound were prepared along with eight wells of 1:3 serial dilutions of Sulfaphenazole (a positive control inhibitor). The assay plates were pre-warmed after 15 μL of probe substrate was added into appropriate wells. Then the reactions were initiated by adding 15 μL of a pre-warmed 8 mM NADPH solution resulting in a final NADPH concentration of 2 mM. The concentrations of test compound ranged from 0.137 μM to 10 μM. A zero time-point control reaction was prepared by adding 135 μL acetonitrile (ACN) containing tolbutamide (200 ng/mL) as internal standard (IS) to 30 μL. of the reaction solution to inactivate the enzymes before adding the probe substrate. A control reaction with no inhibitor was also prepared. After a suitable incubation at 37° C., 10 min, the reactions were terminated by the addition of 135 μL ACN containing IS. The reactions were prepared and analyzed for the metabolite forms of the probe substrate using LC-MS/MS.

Data set [1] in a line: Human Plasma Protein Binding Assay (dialysis). The data set is classed as in vitro ADME. As to conditions: 1 μM compound, dialysis 6 hr at 37 °C. The procedure:
The plasma protein binding of compounds in human plasma was determined using a dialysis method. The dialysis membrane strips were prepared by soaking them in ultra-pure water for about 1 hr at room temperature, followed by separation and soaking in ethanol:water (20:80 v:v) for about 20 min, and a final rinse with ultra-pure water. Prior to use, the membranes were rinsed and soaked for another 20 min in ultra-pure water.
The blank plasma samples were thawed, centrifuged and verified its pH values. Only the plasma with pH between 7.0-8.0 was used in the experiment. The final concentration of compound in the spiked plasma is 1 μM, with final DMSO<=1%. All samples were prepared in triplicates. The time zero (T0) samples was used for determining the recovery of the compound of interest after dialysis. It was prepared in the same way as other dialysis samples except it was stored at 2-8° C. before LC-MS/MS analysis.
The other spiked plasma samples were loaded onto the dialysis device and incubated at and 37±1° C. with 5% CO2 for 6 hr. At the end of the dialysis, aliquots of samples from the plasma and buffer sides of the dialysis device were taken and processed for LC-MS/MS analysis.
The % Unbound, % Bound, and % Recovery of the compounds were calculated from the peak area ratios of the analyte and internal standard in the plasma and buffer samples as shown in the following equations:
[formula] [formula] [formula] • where [F] is the peak area ratio of analyte/internal standard on the buffer (receiver) side of the membrane; [T] is the peak area ratio of analyte/internal standard on the plasma (donor) side of the membrane; [T0] is the peak area ratio of analyte/internal standard in the plasma sample at time zero.

In the case of `N#Cc1ccc(N2CC3(CCC4(CC4)CC3)c3cc(NS(=O)(=O)CCO)ccc3C2=O)nc1N1CCC(F)(F)CC1` [Compound 27], the IC50 in the data set with OVCAR3 Cells and with HCC1806 Cells was less than 0.2 µM each time. The compound also displayed an MRT in “Mouse PK Assay” (IV) of 6.2 h. In addition, the half-life in “Mouse PK Assay” (single oral dose 5 mg/kg, read-out: PO T1/2 (converted)) was 3.7 h. Moreover, at PXR, the “Induction Fold” value stood at 1.8x.

On to `COc1ccc(N2CC3(CCC4(CC4)CC3)c3cc(NS(=O)(=O)CCO)ccc3C2=O)nc1N1CCC(F)(F)CC1` [Compound 133], for which the IC50 was less than 0.2 µM in the data set on OVCAR3 Cells and more than 10 µM at P450 2C9. This compound also had a fraction unbound at 6 hr, 1 μM in data set [1] of 0.001. Besides, the “Induction Fold” value at PXR was 1.7x.

Source of the values: US20260184692A1, “HETEROCYCLIC COMPOUNDS, PREPARATION METHODS AND USES THEREOF” (InventisBio Co., Ltd., priority 2022, published 2026).
